From PMC8200971, “Design, Synthesis, Biological Evaluation and Silico Prediction of Novel Sinomenine Derivatives” (Molecules, 2021) come the findings set out here.

Data set [1] concerns HepG2 (human hepatocellular carcinoma cell lines). Nature of the data set: MTT assay, growth inhibition. As to conditions: HepG2, 20 μM, 24 h. The data set is classed as cell-based. Here is the method: (§1) The in vitro growth inhibitory activity of the sinomenine derivatives (5a–5k) was evaluated against different three cell lines, MCF-7, Hela, and HepG2, using sinomenine as the reference compound kept under the same conditions in an MTT assay. The inhibition ratios of synthetic compounds were determined at concentrations of 2, 20 and 200 μM.
(§2) The MCF-7 (human breast cancer cell lines), Hela (human cervical cancer cells lines), and HepG2 (human hepatocellular carcinoma cell lines) cells were used to measure the cytotoxicity of the 5a–5k series, which were provided by the Academy of Military Medical Sciences (Beijing, China). The cell lines were maintained on RPMI 1640 nutrient medium supplemented with 10% heat-inactivated fetal bovine serum, 1% L-glutamine, […] and 100 units/mL penicillin. The cells were grown at 37 °C in a humidified atmosphere with 5% CO2 and were subcultured two to three times a week.
(§3) The MTT (3-(4, 5-dimethyl thiazol-2-yl)-2, 5-diphenyl tetrazolium bromide) assay with a slight modification was used to determine the inhibition effects of substrates 5a–5k. MCF-7, Hela and HepG2 were used for testing. Briefly, cells (5.0 × 10^3 cells per well) were seeded in 100 μL of the RPMI-1640 medium in 96-well plates for 24 h, treated with drugs and complete medium in wells up to 200 μL for 24 h. RPMI-1640 samples were employed as negative controls, and cisplatin as a positive control. Four quadruplicates of each concentration for all tested compounds were evaluated in three independent assays. For this, after removing the drug containing media 100 μL, 10 μL of MTT solution was added to wells and incubated for 4 h under similar conditions. After that, the supernatant from each well was removed and the formazan crystals formed by viable cells were dissolved with DMSO (100 μL/well). At the end of incubation, optical densities at 570 nm were measured using a plate reader (BIO-TEK, USA). Cell viability was calculated based on the measured absorbance relative to the absorbance of the cells exposed to the negative control, which represented 100% cell viability.
(Formazan colour is commonly taken as a measure of viable cells.)

Data set [2] relates to Hela (human cervical cancer cells lines). Description: MTT assay, growth inhibition. The class given is cell-based. As to conditions: 20 μM, 24 h. On the procedure:
as §1, §2, §3

The subject of data set [3] is MCF-7 (human breast cancer cell lines). Description: MTT assay, growth inhibition. The class given is cell-based. As to conditions: MCF-7, 20 μM, 24 h. Here is the method: as §1, §2, §3
Data set [4] relates to A549 (human lung adenocarcinoma cell lines). Nature of the data set: CCK8 cytotoxicity assay. The class given is cell-based. As to conditions: Homo sapiens, A549, 60 h, read-out: growth inhibition ratio (mean ± SD). Here is the method:
(§4) Cytotoxicity screens were performed to assess the in vitro anticancer activity of the synthesized sinomenine derivatives 6a–6l on the various cancer cell lines MCF-7, Hela, SW480, and A549, as well as on Hek293 as a normal cell line, at doses of 2.5 and 25 μM. The obtained inhibition ratios data were used to construct a heat map (Figure 3, Tables S1 and S2) in order to select compounds that exert cancer cell line-specific cytotoxicity. Then, the IC50 values of the promising compound were determined. Cisplatin was used as a reference standard. The antiproliferative activity was based on the evaluation of the percent viability using the CCK8 assay, which is a rapid and sensitive method for determining the number of viable cells in culture. In the presence of electronic coupling reagents, WST-8 can be reduced by a dehydrogenase in the mitochondria to produce a highly water-soluble orange-yellow formazan product. Its color is proportional to the proliferation of the number of viable cells and is related to cytotoxicity. Using a microplate reader to measure the OD value can indirectly reflect the number of living cells at 450 nm wavelength.
(§5) To understand structure–function relationships, these selected compounds were subjected to subsequent analyses. All six compounds (6a and 6c–6g) were further examined to determine their IC50 concentrations on the previously mentioned cell lines, and their efficacy was compared to the reference drug cisplatin. For this, six compounds and cisplatin were evaluated on Hela, MCF-7, SW480, and A549, and on noncancerous Hek293 cell lines at various concentrations for 60 h. IC50 values were calculated (Table 2).
(§6) The MCF-7 (human breast cancer cell lines), Hela (human cervical cancer cell lines), SW480 (human colon adenocarcinoma cell lines), A549 (human lung adenocarcinoma cell lines) and nontoxic normal cells Hek293 (human embryonic kidney cell lines) cells were used to measure the cytotoxicity of the 6a–6l. They were obtained from the Beijing Normal University (Beijing, China). The test cell lines were cultured in DMEM, IMDM, F12 and DMEM nutrient medium containing 10% heat-inactivated fetal bovine serum, […] and 100 units/mL penicillin in a humified, 5% (v/v) CO2 atmosphere at 37 °C.
(§7) Cell viability was estimated using the CCK8 assay. Tumor cells ([…]) viz. MCF-7, Hela, SW480, A549 and nontoxic normal cells Hek293 were seeded in medium containing Corning® 96-well tissue culture plates at confluences of […], respectively, in Incucyte ZOOM. Fresh medium (100 μL) containing different concentrations of the test sample was added after 12 h of seeding. The microtiter plates were incubated at 37 °C in a humidified incubator with 5% CO2 for 60 h. Triplicates from each concentration were used. Negative control cells were incubated without sample and cisplatin as a positive control. At the end of treatment, the numbers of viable cells were determined by the CCK8 test. In brief, the media was removed from the 96 well plates and replaced with 100 μL of fresh culture medium with 10% CCK8 solution added to each well including the untreated controls. The 96 well plates were then incubated at 37 °C and 5% CO2 for 1–4 h. Then, the absorbance was measured at 450 nm using a BMG LABTECH®-POLAR star Omega microplate reader (Ortenberg, Germany) to determine the number of viable cells, and the percentage of viability was calculated as ((ODt- ODb/ODc- ODb)) × 100%, where ODt is the mean optical density of wells treated with the tested sample, ODc is the mean optical density of wells treated with DMSO and ODb is the mean optical density of PBS wells without cells. The relation between surviving cells and drug concentrations were plotted to get the survival curve of each tumor cell line after treatment with the specified compound. […]

Data set [5] deals with Hela (human cervical cancer cell lines). Nature of the data set: CCK8 cytotoxicity assay. The class given is cell-based. As to conditions: Homo sapiens, HeLa, 60 h, read-out: growth inhibition ratio (mean ± SD). On the procedure:
as §4, §5, §6, §7

In data set [6] the test system is SW480 (human colon adenocarcinoma cell lines). Description: CCK8 cytotoxicity assay. The class given is cell-based. As to conditions: Homo sapiens, SW480, 60 h, read-out: growth inhibition ratio (mean ± SD). Here is the method: as §4, §5, §6, §7
In data set [7] the test system is MCF-7 (human breast cancer cell lines). Nature of the data set: CCK8 cytotoxicity assay. The class given is cell-based. As to conditions: Homo sapiens, MCF7, 60 h, read-out: growth inhibition ratio (mean ± SD). Here is the method:
as §4, §5, §6, §7

For data set [8], the system named is Hek293 (human embryonic kidney cell lines). Description: CCK8 cytotoxicity assay, normal cells. The data set is classed as cell-based. As to conditions: Homo sapiens, HEK293, 60 h, read-out: growth inhibition ratio (mean ± SD). Here is the method:
as §4, §5, §6, §7

`COC1=C[C@@H]2[C@@H]3Cc4c(CN5CCCCC5)cc(OC)c(OC(=O)Cc5cccc(Cl)c5)c4[C@]2(CCN3C)CC1=O` [5g, (4bR,8aS,9S)-3,7-dimethoxy-11-methyl-6-oxo-1-(piperidin-1-ylmethyl)-6,8a,9,10-tetrahydro-5H-9,4b-(epiminoethano)phenanthren-4-yl 2-(3-chlorophenyl)acetate]: the melting point is 164 to 167 °C. For the same compound, the inhibition ratio result in data set [1] was “more than 53.2%”.
For the compound `COC1=C[C@@H]2[C@@H]3Cc4c(CN5CCCCC5)cc(OC)c(OC(=O)Cc5ccc(Cl)cc5Cl)c4[C@]2(CCN3C)CC1=O` [5i, (4bR,8aS,9S)-3,7-dimethoxy-11-methyl-6-oxo-1-(piperidin-1-ylmethyl)-6,8a,9,10-tetrahydro-5H-9,4b-(epiminoethano)phenanthren-4-yl 2-(2,4-dichlorophenyl)acetate], the melting point was in the range of 135 to 137 °C. Besides, the inhibition ratio in [2] worked out at 94.43%. Moreover, the inhibition ratio in data set [1] is on record as 90.69%. In addition, in [3], the inhibition ratio was determined as 54.13%.
The corresponding values for `COC1=C[C@@H]2[C@@H]3Cc4c(CN5CCCCC5)cc(OC)c(OC(=O)Cc5ccc(Cl)c(Cl)c5)c4[C@]2(CCN3C)CC1=O` [5j, (4bR,8aS,9S)-3,7-dimethoxy-11-methyl-6-oxo-1-(piperidin-1-ylmethyl)-6,8a,9,10-tetrahydro-5H-9,4b-(epiminoethano)phenanthren-4-yl 2-(3,4-dichlorophenyl)acetate] are 143 to 146 °C, 80.22%, 89.57% and 63.35%.
On to `COC1=C[C@@H]2[C@@H]3Cc4c(CN5CCCC5)cc(OC)c(OC(=O)Cc5ccccc5OC)c4[C@]2(CCN3C)CC1=O` [6k, (4bR,8aS,9S)-3,7-dimethoxy-11-methyl-6-oxo-1-(pyrrolidin-1-ylmethyl)-6,8a,9,10-tetrahydro-5H-9,4b-(epiminoethano)phenanthren-4-yl 2-(2-methoxyphenyl)acetate], for which the melting point was 180 to 182 °C. In [4], the inhibition at 2.5 µM worked out at 16.6 ± 2.3% and the inhibition at 25 µM came out at 51.9 ± 6.36%. In addition, in [5], the inhibition at 2.5 µM is 0% and the inhibition at 25 µM was 44.1 ± 0.92%. Besides, in data set [6], the inhibition at 2.5 µM stood at 3.72 ± 1.8% and the inhibition at 25 µM is 36.9 ± 0.52%. Moreover, in [7], the inhibition at 2.5 µM turned out to be 0.75 ± 1.29% and the inhibition at 25 µM turned out to be 24.4 ± 11%. Moreover, in [8], the inhibition at 2.5 µM is 13.9 ± 4.06% and the inhibition at 25 µM amounted to 63.5 ± 10.2%.
For the compound `COC1=C[C@@H]2[C@@H]3Cc4c(CN5CCCC5)cc(OC)c(OC(=O)Cc5ccccc5F)c4[C@]2(CCN3C)CC1=O` [6l, (4bR,8aS,9S)-3,7-dimethoxy-11-methyl-6-oxo-1-(pyrrolidin-1-ylmethyl)-6,8a,9,10-tetrahydro-5H-9,4b-(epiminoethano)phenanthren-4-yl 2-(2-fluorophenyl)acetate], the melting point was in the range of 178 to 180 °C. Also, in [4], the inhibition at 2.5 µM came to 13.2 ± 4.88% and the inhibition at 25 µM was 47.1 ± 5.4%. In data set [5], the inhibition at 2.5 µM came to 0.61 ± 0.6% and the inhibition at 25 µM was found to be 29 ± 1.88%. For the same compound, in data set [6], the inhibition at 2.5 µM stood at 3.91 ± 0.85% and the inhibition at 25 µM was found to be 16.5 ± 0.53%. For the same compound, in data set [7], the inhibition at 2.5 µM was 4.61 ± 4.79% and the inhibition at 25 µM was 9.52 ± 8.26%. Also, in data set [8], the inhibition at 2.5 µM is 12.7 ± 2.89% and the inhibition at 25 µM came out at 68.8 ± 13.3%.

Usually melting point stands for the temperature, or range, at which the solid turns liquid.
